For data set [1], the system named is chicken leukocytes. The data set is described as follows: cells. It is filed as cell-based. Here is the method: Various compounds of Formula I were evaluated for in vitro T-lymphocyte blastogenic activity with chicken leukocytes according to the steps described in the following procedure:
(a) Exsanguination step. The leukocytes were obtained from 3-6 week old Hubbard/Peterson broiler chickens. Initially, the chickens were rendered unconscious in a CO2 chamber. The chickens were then exsanguinated via cardiac puncture. In the exsanguination procedure, a syringe was connected to a needle, and the needle was inserted into the area at the base of the neck under the “V” formed by the breast and sternum. After the needle was properly inserted, continuous vacuum was applied to a syringe (connected to the needle) by pulling back on the plunger. It is important to promptly carry out this withdrawal action, because there is only a 10-15 seconds time period after the blood has starting flowing into the syringe before the blood coagulates, and becomes unusable. As soon as the syringe is full (or prior to complete filling if too much time has elapsed such that the blood begins to coagulate), the whole uncoagulated blood is transferred to a tube having the anticoagulant EDTA therein. The tube is then rotated to mix the whole blood and the EDTA. Alternatively, the whole blood can be withdrawn directly into a vacuum container already having EDTA therein, rather than into a syringe.
(b) Leukocyte isolation step. Numerous methods for isolating leukocytes from (uncoagulated) whole blood are known in the art. In a preferred method, the sterile whole blood was combined with methylcellulose (1.5:1). Any blood containing clots was discarded. The mixture was centrifuged at 30×g for ten minutes (300 rpm on Beckman GS-6R centrifuge). The top layer (leukocytes in supernatant) was decanted into a sterile 50 ml conical tube, while taking care to prevent contamination of the sample by red blood cells. The decanted layer was then centrifuged at 200×g for ten minutes (1500 rpm on the Beckman GS-6R centrifuge). The supernatant liquid was discarded, and the resulting cell “pellet” was retained.
The cells were then washed in a solution containing 10 ml PBS (phosphate buffered saline) and Gentamycin (gentamicin sulfate) at a concentration of 50 μg/ml. This solution was centrifuged at 100×g (1000 rpm on the Beckman centrifuge) for five minutes, and the supernatant liquid was discarded. The washing step (including the centrifuging at 100×g) was repeated to ensure complete removal of the methylcellulose. The use of media such as DMEM ([…]) was avoided in the washing steps, since such media may cause agglutination of the white blood cells. Finally, the cells were then suspended in an appropriate media, such as RPMI 1640 tissue cell culture medium, supplemented with phenol red, NaHCO3, and L-Glutamide. Supplemented RPMI 1640 is available from Sigma-Aldrich Chemical Co.
(c) Cell counting and cell viability step. The cells were counted and checked for viability using the Trypan Blue method of exclusion. 0.1 ml of the cell suspension was placed in a 4-5 ml small culture tube along with 0.7 ml HBSS (Hank's Buffered Saline Solution), available from Sigma-Aldrich, and 0.2 ml of a 0.4% solution of aqueous Trypan Blue stain, available from GIBCO BRL, of Grand Island, N.Y. The components were mixed thoroughly but gently, and allowed to sit for 5 minutes (no longer than 15 minutes). The components should not be exposed to the stain for extended periods of time, because such extended exposure may permit viable cells, as well as non-viable cells, to take up dye.
A cover slip was placed on a Bright Line hemacytometer, available from Howser Scientific, and 10 μl of the mixture from the tube was transferred to each chamber. Non-viable cells appear blue under a microscope. The viable cells in one of the 16-square corners of the hemacytometer were then counted. […]

The test system of data set [2] is E. coli. Nature of the data set: colibacillosis infection model in broiler chickens, Trial A (Example 78). The data set is classed as in vivo, chicken. The settings on record: 2 μg/chick subcutaneous.

Marks after values point to notes of the source that are not given here.

As for `CCOC(=O)C1CN(C(=O)NC)CCC1=O` (stereo not drawn) [Example 11, Ethyl 1-(N-Methylaminocarbonyl)-4-oxo-3-piperidinecarboxylate], the minimal effective concentration in data set [1] (Gallus gallus, Leukocyte, chicken leukocytes, read at 72 hours, read-out: MSC (Minimum Stimulatory Concentration)) came out at 0.001 µg/mL. Moreover, the “MTC (Maximum Tolerable Concentration prior to causing cytotoxicity)” value in data set [1] (Hubbard/Peterson broiler, chicken, 72 h) stood at 1 µg/mL. Moreover, in data set [2], the “% Colibacillosis-associated Mortality” value was found to be 14.0%, the “% Total Mortality” value is 16.5* %, the “Average Weight Gain/Bird” value was 1.40 lb (635 g) and the Feed/Gain is on record as 1.35.

The values are drawn from US6664271B1, “Immunopotentiator agents” (Eli Lilly and Company, priority 1999, dated 2003).
